Measured values reported in PMC7878868, “Mechanisms of feedback inhibition and sequential firing of active sites in plant aspartate transcarbamoylase” (Nature Communications, 2021).
Changes are numbered by the printed parent chain. “And” between values parts separate entries of the source, which are not always exact repeats. Identical values can stand only once. Like-named read-outs stand apart in the source and are kept apart here.

Legend:
atATC WT = biological target: T1, atATC WT (Arabidopsis thaliana, UniProt P49077); assay: Colorimetric ATC activity assay, atATC WT; assay type: biochemical; details: WT
T1 construct: 2.6 kDa fusion tag (modified pET28a); made in house; host or cells: E. coli BLR(DE3)-pLysS
T1 sequence (P49077 82-390): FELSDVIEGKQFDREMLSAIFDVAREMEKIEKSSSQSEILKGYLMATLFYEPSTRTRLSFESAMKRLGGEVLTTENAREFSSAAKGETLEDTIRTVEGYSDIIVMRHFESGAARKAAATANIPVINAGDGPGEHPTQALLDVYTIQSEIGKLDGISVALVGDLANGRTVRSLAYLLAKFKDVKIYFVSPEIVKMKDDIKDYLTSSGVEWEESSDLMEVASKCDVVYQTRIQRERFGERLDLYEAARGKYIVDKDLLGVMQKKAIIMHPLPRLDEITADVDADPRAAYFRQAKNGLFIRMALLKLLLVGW
Description: (§1) Activity was assayed by a colorimetric method[64] adapted to a 96-well plate format. […] Reagent B is light sensitive and was stored at 4 °C in the dark. The color reagents were gently mixed and stored at 4 °C in the dark until added to the sample. Reaction tubes were closed, boiled at 95 °C for 15 min, and kept in the dark for 30 min before measuring the absorbance at 450 nm in a Tecan infinite m200 microplate reader (Tecan). […] Data analysis was done with GraphPad. […] Protein concentration in the assay was 0.3 µM (0.01 mg ml^−1) both for WT and F161A.

atATC-F161A [1] = biological target: T2, atATC-F161A (Arabidopsis thaliana, UniProt P49077, F161A); assay: Colorimetric ATC activity assay, atATC F161A; assay type: biochemical; details: F161A, Asp variable, 5 mM CP
T2 construct: 2.6 kDa fusion tag (modified pET28a); made in house; host or cells: E. coli BLR(DE3)-pLysS
T2 sequence (P49077 82-390 F161A): T1 sequence (P49077 82-390) with F80A
Description: as §1

[2] = biological target: T3, atATC (Arabidopsis ATC aa 82–390) WT (Arabidopsis thaliana, UniProt P49077); assay: Isothermal titration calorimetry (ITC), atATC WT; assay type: binding; details: ITC; for Kd: 25 °C
T3 construct: 2.6 kDa fusion tag (modified pET28a); made in house; host or cells: E. coli BLR(DE3)-pLysS
T3 sequence (P49077 82-390): T1 sequence (P49077 82-390)
Description: (§2) Experiments were performed in an Auto-iTC200 calorimeter (MicroCal, Malvern-Panalytical) at 25 °C with a 0.2 ml reaction cell and 30–40 µM protein solution (in protomer units) in the cell. […] All solutions were in GF buffer and degassed and mixed in the cell by stirring at 750 rpm. Data analysis was performed with Origin 7 (OriginLab) using a general three-site cooperative and a non-cooperative binding model, restricted to one or two ligand binding sites when convenient[24],[62],[63]. Non-linear least-squares regression analysis was employed to estimate dissociation constants for the interaction of the different ligands with ATC.

atATC WT:PALA = biological target: T4, atATC WT:PALA (Arabidopsis thaliana, UniProt P49077); assay: ITC, atATC WT prebound to PALA (WT:PALA); assay type: binding
T4 construct: 2.6 kDa fusion tag (modified pET28a); made in house; host or cells: E. coli BLR(DE3)-pLysS
T4 sequence (P49077 82-390): T1 sequence (P49077 82-390)
Description: as §2

atATC-F161A [3] = biological target: T2, atATC-F161A; assay: biochemical; assay type: binding
Description: as §2

[4] = ITC, protein prebound to PALA, site 2
[5] = ITC, protein prebound to PALA, site 3

N[C@@H](CC(=O)O)C(=O)O [Asp, aspartate]
K0.5 Asp (atATC WT; Asp variable, 5 mM CP): 0.94 mM and 0.94 ± 0.10 mM
K0.5 Asp (atATC-F161A [1]): 3.20 ± 1.03 mM

NC(=O)OP(=O)(O)O [CP, carbamoyl phosphate]
N, number of binding sites per protein trimer according to the ligand binding model [2]: 3
Kd ([2]; site 1, read-out: KD Site 1): 80 µM
Kd ([2]; site 2, read-out: KD Site 2): 80 µM
Kd ([2]; site 3, read-out: KD Site 3): 80 µM
-TΔS Site 1 ([2]; site 1): -2.6 kcal/mol
ΔG Site 1 ([2]; site 1): -5.6 kcal/mol
ΔH Site 1 ([2]; site 1): -3.0 kcal/mol
-TΔS Site 2 ([2]; site 2): -2.6 kcal/mol
ΔG Site 2 ([2]; site 2): -5.6 kcal/mol
ΔH Site 2 ([2]; site 2): -3.0 kcal/mol
-TΔS Site 3 ([2]; site 3): -2.6 kcal/mol
ΔG Site 3 ([2]; site 3): -5.6 kcal/mol
N, number of binding sites per protein trimer according to the ligand binding model (atATC WT:PALA; ITC, protein prebound to PALA): 2
-TΔS Site 2 (atATC WT:PALA; [4]): 0.4 kcal/mol
ΔG Site 2 (atATC WT:PALA; [4]): -5.3 kcal/mol
ΔH Site 2 (atATC WT:PALA; [4]): -5.7 kcal/mol
-TΔS Site 3 (atATC WT:PALA; [5]): 0.4 kcal/mol
ΔG Site 3 (atATC WT:PALA; [5]): -5.3 kcal/mol
ΔH Site 3 (atATC WT:PALA; [5]): -5.7 kcal/mol
Kd (atATC WT:PALA; read-out: KD Site 2): 140 µM
N, number of binding sites per protein trimer according to the ligand binding model (atATC-F161A [3]; ITC, F161A): 3
fold higher affinity of F161A than WT (atATC-F161A [3]; ITC, F161A versus WT): ~ 100 fold
-TΔS Site 1 (atATC-F161A [3]; ITC, F161A, site 1): -2.4 kcal/mol
ΔG Site 1 (atATC-F161A [3]; ITC, F161A, site 1): -8.4 kcal/mol
ΔH Site 1 (atATC-F161A [3]; ITC, F161A, site 1): -6.0 kcal/mol
-TΔS Site 2 (atATC-F161A [3]; ITC, F161A, site 2): -2.4 kcal/mol
ΔG Site 2 (atATC-F161A [3]; ITC, F161A, site 2): -8.4 kcal/mol
ΔH Site 2 (atATC-F161A [3]; ITC, F161A, site 2): -6.0 kcal/mol
-TΔS Site 3 (atATC-F161A [3]; ITC, F161A, site 3): -2.4 kcal/mol
ΔG Site 3 (atATC-F161A [3]; ITC, F161A, site 3): -8.4 kcal/mol
ΔH Site 3 (atATC-F161A [3]; ITC, F161A, site 3): -6.0 kcal/mol
Kd (atATC-F161A [3]; KD Site 1, ITC, F161A, site 1): 0.73 µM
Kd (atATC-F161A [3]; KD Site 2, ITC, F161A, site 2): 0.73 µM
Kd (atATC-F161A [3]; KD Site 3, ITC, F161A, site 3): 0.73 µM
Kd (atATC-F161A [3]; KD, ITC, F161A): 0.7 µM
Hill-coefficient h of CP initial-rate plot (atATC WT; CP as variable ligand, in the presence of UMP): 2.2
